Source: article PMC10377566 (European journal of medicinal chemistry, 2022)
Converted amounts (≈) assume the structure as drawn. “And” between values parts separate entries of the source, which are not always exact repeats. Equal values may be shown once. One block for each molecule: values may come before it.

Key:
[1] = Metabolic stability in mouse liver microsomes; format: in vitro ADME, mouse (CD-1 Mouse)
[2] = system: VIM-expressing sarcoma cell lines HT-1080, RD, GCT; format: cell-based; details: for improvement in potency: VIM-expressing sarcoma cell lines, compared to FiVe1
HT-1080 cells = assay: Cell proliferation assay; format: cell-based; details: for improvement in selectivity: cell type selectivity (vs MCF-7), compared to FiVe1; for SI (HT-1080 vs MCF-7): selectivity index, ratio of IC50 values HT-1080 and MCF-7
[3] = Pharmacokinetic study in mouse; format: in vivo
[4] = system: vimentin (VIM) Ser56 phosphorylation; assay: Western blot of VIM Ser56 phosphorylation in HT-1080, RD and GCT sarcoma cells; format: cell-based; details: 24 h, HT-1080, RD and GCT cells
[5] = HPLC-based kinetic solubility in DPBS; format: physicochemical; details: for improvement in solubility: compared to FiVe1, DPBS
[6] = Metabolite identification in incubations with mouse hepatocytes; format: in vitro ADME; details: FiVe1 incubated with mouse hepatocytes, LC-MS/MS, peak area λ = 252–420 nm
panel of ~100 kinases = details: concentrations up to 10 μM; cited from earlier work
[7] = system: VIM-expressing mesenchymal cancer cell lines; details: anti-proliferative effects compared with cells that lack VIM expression; cited from earlier work

T1/2 ([1]; mouse liver microsomes): 42.7 min | Remaining (T= 60 min) ([1]; mouse liver microsomes, 60 min): 35.7% | CLint(mic) ([1]; mouse, microsomes): 32.5 µL/min/mg
Molecule: 3-(3-chloro-5-(4-(8-chlorocinnolin-4-yl)piperazin-1-yl)phenoxy)propane-1,2-diol [Compound 11e]

Molecule: Clc1cc(Cl)cc(N2CCN(c3cnnc4c(Cl)cccc34)CC2)c1 [Compound 4a, 8-chloro-4-(4-(3,5-dichlorophenyl)piperazin-1-yl)cinnoline]
improvement in potency [2]: ~ 4 fold

Molecule: N#Cc1cc(Cl)cc(N2CCN(c3cnnc4c(Cl)cccc34)CC2)c1 [Compound 4b, 3-chloro-5-(4-(8-chlorocinnolin-4-yl)piperazin-1-yl)benzonitrile]
improvement in potency [2]: ~ 4 fold

Molecule: COc1cc(OC)cc(N2CCN(c3cnnc4c(Cl)cccc34)CC2)c1 [Compound 4c, 8-chloro-4-(4-(3,5-dimethoxyphenyl)piperazin-1-yl)cinnoline]
improvement in selectivity (HT-1080 cells): > 15 fold | improvement in potency [2]: > 20 fold

Molecule: COc1cccc(N2CCN(c3cnnc4c(Cl)cccc34)CC2)c1 [Compound 4d, 8-chloro-4-(4-(3-methoxyphenyl)piperazin-1-yl)cinnoline]
improvement in selectivity (HT-1080 cells): > 2 fold | improvement in potency [2]: > 2 fold

Tlast ([3]; ip 1 mg/kg): 4 h | improvement in bioavailability ([3]; oral, compared to FiVe1, assuming dose proportional absorption): ~ 4 fold
Molecule: COc1cc(Cl)cc(N2CCN(c3cnnc4c(Cl)cccc34)CC2)c1 [Compound 4e, 8-chloro-4-(4-(3-chloro-5-methoxyphenyl)piperazin-1-yl)cinnoline]
improvement in selectivity (HT-1080 cells): > 10 fold and 19 fold and > 15 fold | VIM Ser56 phosphorylation (Western immunoblot) [4]: induce VIM Ser56 phosphorylation at 10-fold lower concentration (100 nM) | improvement in potency [2]: > 20 fold

Molecule: Clc1cc(N2CCCC2)cc(N2CCN(c3cnnc4c(Cl)cccc34)CC2)c1 [Compound 4f, 8-chloro-4-(4-(3-chloro-5-(pyrrolidin-1-yl)phenyl)piperazin-1-yl)cinnoline]
inhibition of mesenchymal cancer cell growth (in words) [2]: total loss in activity

Molecule: Oc1cc(Cl)cc(N2CCN(c3cnnc4c(Cl)cccc34)CC2)c1 [Compound 4g, 3-chloro-5-(4-(8-chlorocinnolin-4-yl)piperazin-1-yl)phenol]
improvement in selectivity (HT-1080 cells): > 10 fold | improvement in potency [2]: > 20 fold

Molecule: Nc1cc(Cl)cc(N2CCN(c3cnnc4c(Cl)cccc34)CC2)c1 [Compound 4i, 3-chloro-5-(4-(8-chlorocinnolin-4-yl)piperazin-1-yl)aniline]
improvement in selectivity (HT-1080 cells): ~ 2 fold | improvement in potency [2]: ~ 2 fold

IC50 ([2]; Homo sapiens, HT-1080, read-out: IC50 values): ~10 µM
Molecule: CC(=O)Nc1cc(Cl)cc(N2CCN(c3cnnc4c(Cl)cccc34)CC2)c1 [Compound 4j, N-(3-chloro-5-(4-(8-chlorocinnolin-4-yl)piperazin-1-yl)phenyl)acetamide]

Molecule: C[C@H]1CN(c2cnnc3c(Cl)cccc23)CCN1c1cc(Cl)cc(Cl)c1 [Compound 7a, (S)-8-chloro-4-(4-(3,5-dichlorophenyl)-3-methylpiperazin-1-yl)cinnoline]
loss in antiproliferative potency ([2]; compared with its analog 4a): ~ 2 fold

Molecule: Clc1cccc(N2CCN(c3ccnc4c(Cl)cccc34)CC2)c1 [Compound 10d, 8-chloro-4-(4-(3-chlorophenyl)piperazin-1-yl)quinoline]
VIM Ser56 phosphorylation (Western immunoblot) [4]: inactive

solubility at 16 h ([5]; DPBS, pH 7.4): 68 µM (≈ 28.4 µg/mL) | improvement in solubility [5]: > 40 fold
Molecule: NCCOc1cc(Cl)cc(N2CCN(c3cnnc4c(Cl)cccc34)CC2)c1 [Compound 11a, 2-(3-chloro-5-(4-(8-chlorocinnolin-4-yl)piperazin-1-yl)phenoxy)ethan-1-amine]
SI (HT-1080 vs MCF-7) (HT-1080 cells): >5

improvement in solubility [5]: > 40 fold
Molecule: CN(C)CCOc1cc(Cl)cc(N2CCN(c3cnnc4c(Cl)cccc34)CC2)c1 [Compound 11b, 2-(3-chloro-5-(4-(8-chlorocinnolin-4-yl)piperazin-1-yl)phenoxy)-N,N-dimethylethan-1-amine]

improvement in solubility [5]: > 40 fold
Molecule: CN(C)CCCOc1cc(Cl)cc(N2CCN(c3cnnc4c(Cl)cccc34)CC2)c1 [Compound 11c, 3-(3-chloro-5-(4-(8-chlorocinnolin-4-yl)piperazin-1-yl)phenoxy)-N,N-dimethylpropan-1-amine]

Molecule: OCCOc1cc(Cl)cc(N2CCN(c3cnnc4c(Cl)cccc34)CC2)c1 [Compound 11d, 2-(3-chloro-5-(4-(8-chlorocinnolin-4-yl)piperazin-1-yl)phenoxy)ethan-1-ol]
SI (HT-1080 vs MCF-7) (HT-1080 cells): >40 | improvement in potency [2]: > 3 fold

Molecule: COCCOc1cc(Cl)cc(N2CCN(c3cnnc4c(Cl)cccc34)CC2)c1 [Compound 11f, 8-chloro-4-(4-(3-chloro-5-(2-methoxyethoxy)phenyl)piperazin-1-yl)cinnoline]
SI (HT-1080 vs MCF-7) (HT-1080 cells): >12

IC50 (HT-1080 cells; Homo sapiens, HT-1080, 72 h, read-out: IC50 HT-1080): 13.6 ± 1.18 µM
Molecule: COC(COc1cc(Cl)cc(N2CCN(c3cnnc4c(Cl)cccc34)CC2)c1)OC [Compound 11g, 8-chloro-4-(4-(3-chloro-5-(2,2-dimethoxyethoxy)phenyl)piperazin-1-yl)cinnoline]
SI (HT-1080 vs MCF-7) (HT-1080 cells): >2

Molecule: COC(=O)CCOc1cc(Cl)cc(N2CCN(c3cnnc4c(Cl)cccc34)CC2)c1 [Compound 11j, methyl 3-(3-chloro-5-(4-(8-chlorocinnolin-4-yl)piperazin-1-yl)phenoxy)propanoate]
SI (HT-1080 vs MCF-7) (HT-1080 cells): >20

Molecule: O=C(O)CCOc1cc(Cl)cc(N2CCN(c3cnnc4c(Cl)cccc34)CC2)c1 [Compound 11k, 3-(3-chloro-5-(4-(8-chlorocinnolin-4-yl)piperazin-1-yl)phenoxy)propanoic acid]
SI (HT-1080 vs MCF-7) (HT-1080 cells): >13

Tlast ([3]; po 25 mg/kg): 18 h | % Peak Area [6]: 6%
Molecule: Clc1cccc(N2CCN(c3cnnc4c(Cl)cccc34)CC2)c1 [FiVe1]
VIM Ser56 phosphorylation (Western immunoblot) [4]: induced Ser56 phosphorylation at 1 μM but not at 100 nM | kinase inhibition (panel of ~100 kinases): not found to be an inhibitor of any cell cycle or cytokinesis-related kinase | cell-based therapeutic index [7]: > 10
